From patent publication US6358995B1, “Carboxylic acid derivatives having fused rings” (Eisai Co., Ltd., priority 1996, dated 2002)

Legend:
Assay in all cases: Transcription accelerating activity through RARs (PLAP reporter in COS-1 cells)
Format in all cases: cell-based
Conditions in all cases: relative to ED30 of all-trans retinoic acid = 1, ED30 = concentration giving 30% of activity induced by 1 μM all-trans retinoic acid
RAR-α = target: T1, RAR-α (Homo sapiens, UniProt P10276)
T1 construct: expressed in transfected cells; host or cells: COS-1 (African green monkey kidney cells), transient lipofection
T1 sequence (P10276 1-462): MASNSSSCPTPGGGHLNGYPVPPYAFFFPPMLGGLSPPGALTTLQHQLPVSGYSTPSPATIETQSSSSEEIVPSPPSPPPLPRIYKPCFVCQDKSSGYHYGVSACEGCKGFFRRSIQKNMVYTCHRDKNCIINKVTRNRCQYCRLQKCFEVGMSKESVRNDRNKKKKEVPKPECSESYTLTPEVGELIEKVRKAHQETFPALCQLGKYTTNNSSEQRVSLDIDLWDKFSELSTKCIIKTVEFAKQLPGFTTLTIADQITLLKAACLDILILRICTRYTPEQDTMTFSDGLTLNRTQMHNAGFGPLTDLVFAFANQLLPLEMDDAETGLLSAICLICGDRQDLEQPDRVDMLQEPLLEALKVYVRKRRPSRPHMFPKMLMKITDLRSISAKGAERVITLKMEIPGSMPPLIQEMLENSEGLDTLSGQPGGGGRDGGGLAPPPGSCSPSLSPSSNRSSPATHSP
Description: (§1) Measurement of the Activities of Accelerating Trans-cription Through RARs
(§2) Human RAR Expression Vectors and secretory alkaline phosphatase (PLAP) gene vectors (PLAP vectors) containing in a state integrated into the upstream a competent sequence whose expression is […] through binding with RAR depending on a ligand were temporarily transferred into COS-1 (African green monkey kidney cells), and the PLAP which had been produced depending on a ligand and secreted into a culture medium was analyzed by the chemiluminescence method to determine the transcription-accelerating activity of each compound. Further, the selectivity of each compound among RARs was determined by comparing the transcription accelerating activities of the compound for the receptors with each other.
(§3) On a 60-mm culture dish were scattered 2.5×10^4 COS-1 cells. Four days after, human RAR α, β and γ expression vectors and PLAP vectors were transferred into the cells each in an amount of 4 μg by the lipofection method. Another day after, the resulting cells were recovered, and put on a 96-well culture plate in an amount of 2×10^4 per unit well. Four hours after, the cells were put on a medium containing charcoal-treated fetal bovine serum, followed by the addition of a dilution of all-trans retinoic acid or a test compound. After the lapse of 36 hours, the supernatant was recovered and the resulting samples were treated at 65° C. for 10 minutes to eliminate the non-specific activity. 15 μl of each sample was mixed with 60 μl of a 28 mM sodium carbonate buffer(pH10), followed by the addition of 75 μl of Smilight (trade name, a product of Sumitomo Metal Industries, Ltd., substrate for chemiluminescence). The resulting mixture was reacted at 37° C. for 30 minutes and the intensity of luminescence was determined. The compounds which will be described below induced the transcription activities of RARs dependently on the concentration.

RAR-β = target: T2, RAR-β (Homo sapiens, UniProt P10826)
T2 construct: expressed in transfected cells; host or cells: COS-1 (African green monkey kidney cells), transient lipofection
T2 sequence (P10826 1-455): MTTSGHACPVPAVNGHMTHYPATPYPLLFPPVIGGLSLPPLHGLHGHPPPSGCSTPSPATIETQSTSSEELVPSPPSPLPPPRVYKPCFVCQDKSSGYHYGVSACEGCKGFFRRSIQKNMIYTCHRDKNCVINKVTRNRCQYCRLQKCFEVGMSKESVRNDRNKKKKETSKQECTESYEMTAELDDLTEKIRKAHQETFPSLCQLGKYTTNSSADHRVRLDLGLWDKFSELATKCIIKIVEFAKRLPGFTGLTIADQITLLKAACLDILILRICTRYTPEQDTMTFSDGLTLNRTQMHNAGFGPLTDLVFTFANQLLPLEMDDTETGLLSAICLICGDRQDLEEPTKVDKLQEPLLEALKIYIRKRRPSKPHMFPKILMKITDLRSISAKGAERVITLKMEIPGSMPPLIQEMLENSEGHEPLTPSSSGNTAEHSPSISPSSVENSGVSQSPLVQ
Description: as §1, §2, §3

RAR-γ = target: T3, RAR-γ (Homo sapiens, UniProt P13631)
T3 construct: expressed in transfected cells; host or cells: COS-1 (African green monkey kidney cells), transient lipofection
T3 sequence (P13631 1-454): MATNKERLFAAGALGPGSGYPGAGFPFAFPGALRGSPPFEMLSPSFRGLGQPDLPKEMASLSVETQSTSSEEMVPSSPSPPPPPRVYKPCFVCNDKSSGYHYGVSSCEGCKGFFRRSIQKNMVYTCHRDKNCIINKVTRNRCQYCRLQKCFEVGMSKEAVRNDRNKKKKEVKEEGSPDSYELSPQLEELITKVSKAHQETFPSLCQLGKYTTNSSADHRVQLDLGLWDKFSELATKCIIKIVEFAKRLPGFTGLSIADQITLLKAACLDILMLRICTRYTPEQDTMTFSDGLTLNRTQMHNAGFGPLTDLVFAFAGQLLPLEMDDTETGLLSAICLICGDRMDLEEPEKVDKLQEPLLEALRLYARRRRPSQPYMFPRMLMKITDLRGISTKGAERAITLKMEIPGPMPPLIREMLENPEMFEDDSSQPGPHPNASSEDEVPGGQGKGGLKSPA
Description: as §1, §2, §3

SMILES | Transcription accelerating activity Relative ED30 RAR-α (RAR-α) | Transcription accelerating activity Relative ED30 RAR-β (RAR-β) | Transcription accelerating activity Relative ED30 RAR-γ (RAR-γ)
Cc1cccc2c1C=C(c1ccc(-c3ccc(C(=O)O)cc3)[nH]1)CO2 [Example 129, 4-{2-[5-(5-Methyl-2H-chromen-3-yl)pyrrolyl]}benzoic acid] | 4.4 | 1050 | 2400
Cc1cc(C)c2cc(-c3ccc(-c4ccc(C(=O)O)cc4)[nH]3)oc2c1C [Example 113, 4-{2-[5-(4,6,7-Trimethylbenzofuran-2-yl)pyrrolyl]}benzoic acid] | 0.80 | 24 | 150
Cc1ccc(C)c2sc(-c3ccc(-c4ccc(C(=O)O)cc4)[nH]3)cc12 [Example 77, 4-{2-[5-(4,7-Dimethylbenzothiophen-2-yl)pyrrolyl]}benzoic acid] | 0.35 | 65 | 130
CCc1cc(F)cc2cc(-c3ccc(-c4ccc(C(=O)O)cc4)[nH]3)oc12 [Example 25, 4-{2-[5-(5-Fluoro-7-ethylbenzofuran-2-yl)pyrrolyl]}benzoic acid] | 0.65 | 62 | 63
O=C(O)c1ccc(-c2ccc(-c3cc4c(F)ccc(F)c4o3)[nH]2)cc1 [Example 27, 4-{2-[5-(4,7-Difluorobenzofuran-2-yl)pyrrolyl]}benzoic acid] | 0.63 | 170 | 1000
Cc1ccc(C)c2c1C=C(c1ccc(-c3ccc(C(=O)O)cc3)[nH]1)CO2 [Example 127, 4-{2-[5-(5,8-Dimethyl-2H-chromen-3-yl)pyrrolyl]}benzoic acid] | 1.8 | 240 | 3600
COc1ccc2ccc(-c3ccc(-c4ccc(C(=O)O)cc4)[nH]3)cc2c1C [Example 4, 4-{2-[5-(7-Methoxy-8-methylnaphthalen-2-yl)pyrrolyl]}benzoic acid] | 49 | — (—; >4000) | — (—; >4000)
Cc1ccc(C)c2oc(-c3ccc(-c4ccc(C(=O)O)cc4)[nH]3)cc12 [Example 13, 4-{2-[5-(4,7-Dimethylbenzofuran-2-yl)pyrrolyl]}benzoic acid] | 0.4 | 13 | 48
Cc1cc(C)c2oc(-c3ccc(-c4ccc(C(=O)O)cc4)[nH]3)cc2c1 [Example 50, 4-{2-[5-(5,7-Dimethylbenzofuran-2-yl)pyrrolyl]}benzoic acid] | 0.38 | 280 | 710
CCc1ccc(OC)c2ccc(-c3ccc(-c4ccc(C(=O)O)cc4)[nH]3)cc12 [Example 90, 4-{2-[5-(5-Methoxy-8-ethylnaphthalen-2-yl)pyrrolyl]}benzoic acid] | 3.1 | 450 | 1400
O=C(O)c1ccc(-c2ccc(-c3cc4cccc(Cl)c4o3)[nH]2)cc1 [Example 15, 4-{2-[5-(7-Chlorobenzofuran-2-yl)pyrrolyl]}benzoic acid] | 3.1 | 940 | 2100
Cc1c(-c2ccc(-c3ccc(C(=O)O)cc3)[nH]2)oc2c(Cl)ccc(Cl)c12 [Example 46, 4-{2-[5-(4,7-Dichloro-3-methylbenzofuran-2-yl)pyrrolyl]}benzoic acid] | 0.63 | 14 | 240
CC1=CCOc2ccc(-c3ccc(-c4ccc(C(=O)O)cc4)[nH]3)cc21 [Example 133, 4-{2-[5-(4-Methyl-2H-chromen-6-yl)pyrrolyl]}benzoic acid] | 3.2 | 250 | 780

Second part, the molecule after the results:

Transcription accelerating activity Relative ED30 RAR-α (RAR-α) | Transcription accelerating activity Relative ED30 RAR-β (RAR-β) | Transcription accelerating activity Relative ED30 RAR-γ (RAR-γ) | SMILES
0.66 | 59 | 300 | CCc1ccc(Cl)c2cc(-c3ccc(-c4ccc(C(=O)O)cc4)[nH]3)oc12 [Example 20, 4-{2-[5-(4-Chloro-7-ethylbenzofuran-2-yl)pyrrolyl]}benzoic acid]
0.33 | 91 | 790 | O=C(O)c1ccc(-c2ccc(-c3cc4c(F)ccc(Cl)c4o3)[nH]2)cc1 [Example 42, 4-{2-[5-(4-Fluoro-7-chlorobenzofuran-2-yl)pyrrolyl]}benzoic acid]
0.17 | 26 | 430 | Cc1ccc(Cl)c2oc(-c3ccc(-c4ccc(C(=O)O)cc4)[nH]3)cc12 [Example 53, 4-{2-[5-(7-Chloro-4-methylbenzofuran-2-yl)pyrrolyl]}benzoic acid]
1.0 | 160 | 1400 | O=C(O)c1ccc(-c2ccc(-c3cc4c(Cl)ccc(Cl)c4o3)[nH]2)cc1 [Example 14, 4-{2-[5-(4,7-Dichlorobenzofuran-2-yl)pyrrolyl]}benzoic acid]
0.40 | 67 | 330 | CCc1cc(Cl)cc2cc(-c3ccc(-c4ccc(C(=O)O)cc4)[nH]3)oc12 [Example 23, 4-{2-[5-(5-Chloro-7-ethylbenzofuran-2-yl)pyrrolyl]}benzoic acid]
0.26 | 24 | 120 | CCc1ccc(C)c2cc(-c3ccc(-c4ccc(C(=O)O)cc4)[nH]3)oc12 [Example 17, 4-{2-[5-(4-Methyl-7-ethylbenzofuran-2-yl)pyrrolyl]}benzoic acid]
0.20 | 31 | 120 | CCc1cccc2cc(-c3ccc(-c4ccc(C(=O)O)cc4)[nH]3)oc12 [Example 55, 4-{2-[5-(7-Ethylbenzofurn-2-yl)pyrrolyl]}benzoic acid]
